Results published in patent US8232288B2, “Substituted benzimidazoles, benzothiazoles and benzoxazoles” (Gruenenthal GmbH, priority 2009, dated 2012).
Counter-ions that a name gives are not always drawn.

Experiments:
[1] = molecular target: T1, human B1R receptor (hB1R) (Homo sapiens, UniProt P46663); experiment: Functional investigation on the bradykinin receptor 1 (B1R), FLIPR Ca2+ assay, hB1R cells; assay type: cell-based
T1 construct: expressed in transfected cells; host or cells: CHO K1 cells
T1 sequence (P46663 1-353): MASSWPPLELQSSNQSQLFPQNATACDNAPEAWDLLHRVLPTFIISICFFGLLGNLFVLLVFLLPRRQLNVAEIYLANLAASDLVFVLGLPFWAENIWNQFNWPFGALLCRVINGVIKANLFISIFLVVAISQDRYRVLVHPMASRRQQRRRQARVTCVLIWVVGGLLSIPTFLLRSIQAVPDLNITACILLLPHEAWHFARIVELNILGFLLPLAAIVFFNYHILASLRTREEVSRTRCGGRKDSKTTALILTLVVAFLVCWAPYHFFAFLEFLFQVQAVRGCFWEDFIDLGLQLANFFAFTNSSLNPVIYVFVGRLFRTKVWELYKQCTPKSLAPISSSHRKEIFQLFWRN
Experimental: (§1) The agonistic or antagonistic action of substances can be quantified on the bradykinin receptor 1 (B1R) of the human and rat species with ectopically expressing cell lines (CHO K1 cells) and with the aid of a Ca^2+-sensitive dyestuff (Fluo-4) in a fluorescent imaging plate reader (FLIPR). The figure in % activation is based on the Ca^2+ signal after addition of Lys-Des-Arg^9-bradykinin (0.5 nM) or Des-Arg^9-bradykinin (100 nM). Antagonists lead to a suppression of the Ca^2+ inflow after addition of the agonist. % inhibition compared with the maximum achievable inhibition is stated.
(§2) The agonistic or antagonistic action of substances can be determined on the bradykinin receptor 1 (B1R) of the human and rat species with the following assay. In accordance with this assay, the Ca^2+ inflow through the channel is quantified with the aid of a Ca^2+-sensitive dyestuff (type Fluo-4, Molecular Probes Europe BV, Leiden Holland) in a fluorescent imaging plate reader (FLIPR, Molecular Devices, Sunnyvale, USA).
(§3) Chinese hamster ovary cells (CHO K1 cells) transfected stably with the human B1R gene (hB1R cells) or the B1R gene of the rat (rB1R cells) are used. For functional studies, these cells are plated out on black 96-well plates with a clear base (BD Biosciences, Heidelberg, Germany or Greiner, Frickenhausen, Germany) in a density of 20,000-35,000 cells/well. The cells are left overnight at 37° C. and 5% CO2 in culture medium (hB1R cells: Nutrient Mixture Ham's F12, Gibco Invitrogen GmbH, Karlsruhe, Germany or DMEM, Sigma-Aldrich, Taufkirchen, Germany; rB1R cells: D-MEM/F12, Gibco Invitrogen GmbH, Karlsruhe, Germany) with 10 vol. % FBS (foetal bovine serum, Gibco Invitrogen GmbH, Karlsruhe, Germany or PAN Biotech GmbH, Aidenbach, Germany). On the following day, the cells are loaded for 60 min at 37° C. with 2.13 μM Fluo-4 (Molecular Probes Europe BV, Leiden Holland) in HBSS buffer (Hank's buffered saline solution, Gibco Invitrogen GmbH, Karlsruhe, Germany) with 2.5 mM probenecid (Sigma-Aldrich, Taufkirchen, Germany) and 10 mM HEPES (Sigma-Aldrich, Taufkirchen, Germany). The plates are then washed 2× with HBSS buffer, and HBSS buffer which additionally contains 0.1% BSA (bovine serum albumin; Sigma-Aldrich, Taufkirchen, Germany), 5.6 mM glucose and 0.05% gelatine (Merck KGaA, Darmstadt, Germany) is added. After a further incubation of 20 minutes at room temperature, the plates are inserted into the FLIPR for the Ca^2+ measurement.
(§4) Alternatively, the plates are washed with buffer A (15 mM HEPES, 80 mM NaCl, 5 mM KCl, 1.2 mM CaCl2, 0.7 mM MgSO4, 2 g/l glucose, 2.5 mM probenecid), buffer A is added and the plates are loaded with 2.5 μM Fluo-4 and 0.025% Pluronic F127 (Sigma-Aldrich, Taufkirchen, Germany). Thereafter, the cells are washed 2× with buffer A and incubated for 30 minutes at room temperature with buffer A, which additionally contains 0.05% BSA and 0.05% gelatine, and thereafter inserted into the FLIPR for the Ca^2+ measurement.
(§5) The Ca^2+-dependent fluorescence is measured here before and after addition of substances (λex=488 nm, λem=540 nm). Quantification is by measurement of the highest fluorescence intensity (FC, fluorescence counts) over time.
(§6) The FLIPR protocol consists of 2 additions of substance. Test substances (10 μM) are first pipetted on to the cells and the Ca^2+ inflow is compared with the control (hB1R: Lys-Des-Arg^9-bradykinin>=50 nM; rB1R: Des-Arg^9-bradykinin 10 μM). This gives the result in % activation based on the Ca^2+ signal after addition of Lys-Des-Arg^9-bradykinin (>=50 nM) or Des-Arg^9-bradykinin (10 μM). After incubation for 10-20 minutes, Lys-Des-Arg^9-bradykinin (hB1R) or Des-Arg^9-bradykinin (rB1R) in the concentration of the EC80 is applied and the inflow of Ca^2+ is likewise determined. Antagonists lead to a suppression of the Ca^2+ inflow. % inhibition compared with the maximum achievable inhibition is calculated.
(§7) In order to determine the IC50 value, the substances are added in various concentrations. […]

[2] = molecular target: T2, B1R receptor of the rat (rB1R) (Rattus norvegicus, UniProt P97583); experiment: Functional investigation on the bradykinin receptor 1 (B1R), FLIPR Ca2+ assay, rB1R cells; assay type: cell-based
T2 construct: expressed in transfected cells; host or cells: CHO K1 cells
T2 sequence (P97583 1-337): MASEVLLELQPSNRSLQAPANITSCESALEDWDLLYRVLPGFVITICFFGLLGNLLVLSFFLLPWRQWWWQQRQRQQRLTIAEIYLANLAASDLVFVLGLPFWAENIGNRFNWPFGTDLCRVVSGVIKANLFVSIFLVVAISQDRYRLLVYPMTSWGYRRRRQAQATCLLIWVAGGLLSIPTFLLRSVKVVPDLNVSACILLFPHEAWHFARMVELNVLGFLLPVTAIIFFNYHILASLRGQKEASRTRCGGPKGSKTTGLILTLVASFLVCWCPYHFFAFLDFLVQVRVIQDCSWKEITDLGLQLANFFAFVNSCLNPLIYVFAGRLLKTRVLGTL
Experimental: as §1, §2, §3, §4, §5, §6, §7

SMILES | inhibition at 10 µM [1] | inhibition at 10 µM [2]
COc1cc(C)c(S(=O)(=O)N(C)C(C)c2nc3cccc(C(=O)N4CCC5(CC4)CCN(c4ccncc4)CC5)c3[nH]2)c(C)c1 (stereo not shown) [I_06, 4-methoxy-N,2,6-trimethyl-N-[1-[7-(9-pyridin-4-yl-3,9-diazaspiro[5.5]undecane-3-carbonyl)-1H-benzoimidazol-2-yl]-ethyl]-benzenesulfonic acid amide] | 94% | 90%
CN(Cc1nc2cccc(C(=O)N3CCC4(CC3)CCN(c3ccncc3)C4)c2[nH]1)C(=O)c1ccccc1Cl [I_CC-08, 2-chloro-N-methyl-N-[[7-(3-pyridin-4-yl-3,8-diazaspiro[4.5]decane-8-carbonyl)-1H-benzoimidazol-2-yl]-methyl]-benzamide] | 26% | 64%
CN(Cc1nc2cccc(C(=O)N3CCC4(CC3)CCN(c3ccncc3)CC4)c2[nH]1)S(=O)(=O)c1ccc(OC(F)(F)F)cc1Cl [I_11, 2-chloro-N-methyl-N-[[7-(9-pyridin-4-yl-3,9-diazaspiro[5.5]undecane-3-carbonyl)-1H-benzoimidazol-2-yl]-methyl]-4-(trifluoromethyloxy)-benzenesulfonic acid amide hydrochloride] | 99% | 99%
COc1cc(C)c(S(=O)(=O)N(C)C(C)c2nc3cccc(C(=O)N4CCC5(CCN(Cc6cc(F)ccc6F)CC5)CC4)c3[nH]2)c(C)c1 (stereo not shown) [I_CC-31, N-[1-[7-[9-[(2,5-Difluoro-phenyl)-methyl]-3,9-diazaspiro[5.5]undecane-3-carbonyl]-1H-benzoimidazol-2-yl]-ethyl]-4-methoxy-N,2,6-trimethyl-benzenesulfonic acid amide] | 63% | 104%
COc1cc(C)c(S(=O)(=O)N(C)c2nc3cccc(C(=O)N4CCC5(CC4)CCN(c4ccncc4)CC5)c3n2C)c(C)c1 [I_CC-14, 4-methoxy-N,2,6-trimethyl-N-[1-methyl-7-(3-pyridin-4-yl-3,9-diazaspiro[5.5]undecane-9-carbonyl)-1H-benzoimidazol-2-yl]-benzenesulfonic acid amide] | 96% | 90%
Cc1cccc(Cl)c1S(=O)(=O)N(C)Cc1nc2cccc(C(=O)N3CCC4(CC3)CCN(c3ccncc3)C4)c2[nH]1 [I_CC-07, 2-chloro-N,6-dimethyl-N-[[7-(3-pyridin-4-yl-3,8-diazaspiro[4.5]decane-8-carbonyl)-1H-benzoimidazol-2-yl]-methyl]-benzenesulfonic acid amide] | 100% | 97%
COc1cc(C)c(S(=O)(=O)N(C)Cc2nc3cccc(CN4CCC5(CC4)CCN(c4ccncc4)CC5)c3[nH]2)c(C)c1 [I_15, 4-methoxy-N,2,6-trimethyl-N-[[7-[(9-pyridin-4-yl-3,9-diazaspiro[5.5]undecan-3-yl)-methyl]-1H-benzoimidazol-2-yl]-methyl]-benzenesulfonic acid amide] | 100% | 103%
COc1cc(C)c(S(=O)(=O)N(C)C(C)c2nc3cccc(C(=O)N4CCC5(CC4)CCN(C(=O)c4cc(C)nn4C(C)(C)C)CC5)c3[nH]2)c(C)c1 (stereo not shown) [I_CC-55, N-[1-[7-[9-(2-tert-Butyl-5-methyl-2H-pyrazole-3-carbonyl)-3,9-diazaspiro[5.5]undecane-3-carbonyl]-1H-benzoimidazol-2-yl]-ethyl]-4-methoxy-N,2,6-trimethyl-benzenesulfonic acid amide] | 71% | 89%
COc1cc(C)c(S(=O)(=O)N(C)C(C)c2nc3cccc(C(=O)N4CCC5(CCN(Cc6csnn6)CC5)CC4)c3[nH]2)c(C)c1 (stereo not shown) [I_CC-38, 4-Methoxy-N,2,6-trimethyl-N-[1-[7-[9-([1,2,3]thiadiazol-4-yl-methyl)-3,9-diazaspiro[5.5]undecane-3-carbonyl]-1H-benzoimidazol-2-yl]-ethyl]-benzenesulfonic acid amide] | 85% | 97%
COc1cc(C)c(S(=O)(=O)N(C)c2nc3c(C(=O)N4CCC5(CC4)CCN(c4ccncc4)C5)cccc3s2)c(C)c1 [I_CC-21, 4-methoxy-N,2,6-trimethyl-N-[4-(3-pyridin-4-yl-3,8-diazaspiro[4.5]decane-8-carbonyl)-benzothiazol-2-yl]-benzenesulfonic acid amide] | 36% | 65%
COc1cc(C)c(S(=O)(=O)N(C)CCc2nc3c(C(=O)N4CCC5(CC4)CCN(c4ccncc4)CC5)cccc3[nH]2)c(C)c1 [I_02, 4-methoxy-N,2,6-trimethyl-N-[2-[4-(9-pyridin-4-yl-3,9-diazaspiro[5.5]undecane-3-carbonyl)-1H-benzoimidazol-2-yl]-ethyl]-benzenesulfonic acid amide] | 97% | 100%
CN(Cc1nc2cccc(C(=O)N3CCC4(CC3)CCN(c3ccncc3)C4)c2[nH]1)C(=O)c1sccc1Cl [I_CC-09, 3-chloro-N-methyl-N-[[7-(3-pyridin-4-yl-3,8-diazaspiro[4.5]decane-8-carbonyl)-1H-benzoimidazol-2-yl]-methyl]-thiophene-2-carboxylic acid amide] | 15% | 58%
Cc1cccc(Cl)c1S(=O)(=O)N(C)Cc1nc2cccc(C(=O)N3CCC4(CC3)CCN(c3ccncc3)CC4)c2[nH]1 [I_CC-11, 2-chloro-N,6-dimethyl-N-[[7-(3-pyridin-4-yl-3,9-diazaspiro[5.5]undecane-9-carbonyl)-1H-benzoimidazol-2-yl]-methyl]-benzenesulfonic acid amide] | 98% | 91%
COc1cc(C)c(S(=O)(=O)N(C)C(C)c2nc3cccc(C(=O)N4CCC5(CCN(C(=O)c6ccc(C(F)(F)F)cn6)CC5)CC4)c3[nH]2)c(C)c1 (stereo not shown) [I_CC-46, 4-Methoxy-N,2,6-trimethyl-N-[1-[7-[9-[5-(trifluoromethyl)-pyridine-2-carbonyl]-3,9-diazaspiro[5.5]undecane-3-carbonyl]-1H-benzoimidazol-2-yl]-ethyl]-benzenesulfonic acid amide] | 42% | 89%
